{"source": "paper PMC10787068", "about": "“Targeting the Mitochondrial Chaperone TRAP1 Alleviates Vascular Pathologies in Ischemic Retinopathy” (Advanced Science, 2023)", "key": {"[1]": {"tested_on": "calpain", "experiment": "Calpain activity assay in MIO‐M1 cells", "assay_type": "cell-based, human", "settings": "3 µM gamitrinib or 0.5 µM MitoQ, 6 h under hypoxia, fluorogenic calpain substrate, n = 4", "experimental": "(§1) Figure 5 TRAP1 inhibition induces mPTP opening, mitochondrial calcium discharge, and calpain‐1 activation. A) Visualization of cytoplasmic calcium. Fluo‐4 AM‐labeled MIO‐M1 cells were incubated with the TRAP1 inhibitors gamitrinib and MitoQ^[ [32], [41] ^] for 6 h or thapsigargin for 30 min under hypoxia, and analyzed by confocal microscopy. Scale bars, 10 µm and 2 µm (inset). […] MIO‐M1 cells were treated with a TRAP1 inhibitor, 3 µM gamitrinib or 0.5 µM MitoQ, for 6 h under hypoxia (n = 4). Enzyme activity was measured using a fluorogenic calpain substrate as described in the Experimental Section. C) Restored HIF1α expression upon CypD inhibition. MIO‐M1 cells were incubated with control or CypD‐targeting siRNAs, treated with the TRAP1 inhibitor MitoQ for 6 h under hypoxia, harvested, and analyzed by western blotting. Black and red arrows indicate pro and autolyzed forms of calpain‐1, respectively. […] MIO‐M1 cells were incubated with TRAP1‐targeting siRNAs for 48 h, exposed to hypoxia for 6 h, harvested, and analyzed by qPCR (n = 4). […] Cells were then analyzed by flow cytometry to detect cytoplasmic calcium. […] MIO‐M1 cells were incubated with TRAP1 inhibitors, 3 µM gamitrinib, and 0.5 µM MitoQ, and a cell‐permeable calcium chelator, BAPTA (10 µM), for 6 h as indicated under hypoxia and analyzed by western blotting. […] Data information: Data are expressed as mean ± SEM. […]"}, "[2]": {"tested_on": "Trap1 KO MIO-M1 cells", "experiment": "TRAP1 inhibitor effects in Trap1 KO MIO‐M1 cells", "assay_type": "cell-based, human", "experimental": "MIO‐M1 Trap1 KO cell lines were generated using CRISPR/Cas9‐derived RNA‐guided endonucleases (Toolgen; Seoul, Republic of Korea). MIO‐M1 cells were co‐transfected with the Cas9 vector and TRAP1‐sgRNA expression vector (sgRNA sequence 1; 5′‐[…]‐3′ and sequence 2; 5′‐[…]‐3′) using jetPRIME transfection reagent (Polyplus; Illkirch‐Graffenstaden, France). Transfected cells were selected in culture medium containing […] puromycin (Sigma). Single‐cell colonies were collected using a cloning cylinder (I.D. × H 6.4 mm × 8 mm; Sigma) and analyzed using T7 endonuclease I to confirm Trap1 KO.\nSupplementary Figure 16. Calpain-1 autolysis and HIF1α degradation in Trap1 […]\nA) HIF1α degradation and calpain-1 autolysis in Trap1 knockout (KO) MIO-M1 cells. Trap1 KO MIO-M1 cells were generated as described in the Experimental Section and incubated in hypoxia for 6 hr, followed by analysis using western blotting. Under hypoxia, HIF1α degradation and autoproteolysis of calpain-1 were found in Trap1 KO MIO-M1 cells, when compared with wild type (WT) cells. […]\ncell lines were established using MIO-M1 cells. WT and KO cells were incubated with MitoQ for 6 hr under hypoxia and analyzed by western blotting. Trap1 KO reduced the expression of […]\nQuantification of the HIF1α protein level. HIF1α western blot density was analyzed and compared. Data are expressed as mean ± SEM from four independent experiments.\nC) Cytoplasmic calcium concentration. WT and Trap1-KO MIO-M1 cells were labeled with […]\nFluo-4 AM, incubated with 3 μM gamitrinib or 1 μM MitoQ for 6 hr under hypoxia, collected, and analyzed by flow cytometry. Data information: Data are expressed as mean ± SEM.\nStudent t-test, ***P < 0.001; ns, not significant. […]"}, "[3]": {"tested_on": "MIO‐M1 cells", "experiment": "Cytoplasmic calcium (Fluo‐4 AM) in MIO‐M1 cells", "assay_type": "cell-based, human", "settings": "Fluo‐4 AM‐labeled MIO‐M1 cells under hypoxia; MitoQ 6 h, thapsigargin 30 min", "experimental": "as §1"}, "[4]": {"tested_on": "3D human corneal epithelial (HCE) model, MCTT HCE", "experiment": "Eye irritation test with MCTT HCE (OECD test guideline 492)", "assay_type": "cell-based", "settings": "3D culture MCTT HCE, TRAP1 inhibitors at 2 mM, H&E staining images, n = 5, mean ± SEM", "experimental": "(§2) An eye irritation test was performed using a 3D human corneal epithelial (HCE) model, called MCTT HCE (KeraSkin; Biosolution, Seoul, Republic of Korea), for OECD test guideline 492, following the manufacturer's instructions. In brief, HCE tissues were incubated overnight in medium provided by the supplier. Thereafter, 2 mM MitoQ, SB‐U014, and SB‐U015 were applied to the upper epithelial surface of HCE tissues and incubated for 10 min. After removing the drugs by washing the tissues with PBS, the tissues were further incubated for 16 h, and then subjected to the WST‐1 assay for viability assessment and fixed in 4% PFA for histological analysis. […]\n(§3) their cytotoxic activities were analyzed in four independent experiments by trypan blue staining. The calculated IC50 values are presented in the normal cell cytotoxicity column in Table 1. […] A 3D culture of human corneal epithelium (MCTT HCE) was incubated with 2 mM TRAP1 inhibitors and analyzed by H&E staining.\n(§4) The culture thickness (n = 5) was measured and analyzed (Table S1). […] After topical application of 2 mM MitoQ, SB-U014, or SB-U015 once daily for 6 days, the mouse cornea was harvested and analyzed by H&E staining. […]\n(§5) A 3D culture of human corneal epithelium (MCTT HCE) was incubated with 2 mM TRAP1 inhibitors, and the percentage viability was analyzed by the WST-1 assay (n = 4). Absorbance was measured with a microplate reader. […]"}, "[5]": {"experiment": "Eye irritation test with MCTT HCE (OECD test guideline 492)", "assay_type": "cell-based, human", "settings": "human; 3D culture MCTT HCE, TRAP1 inhibitors at 2 mM, WST-1 assay, n = 4, mean ± SEM; read-out: Percentage viability (%)", "experimental": "as §2, §3, §4, §5"}}, "note": "Entries after “also recorded” stand apart in the source; their conditions may differ.", "data": [{"smiles": "COC1=C(OC)C(=O)C(CCCCCCCCCC[P+](c2ccccc2)(c2ccccc2)c2ccccc2)=C(C)C1=O", "note": "[MitoQ, mitoquinone]", "values": [{"measurement": "calpain enzyme activity", "setting": "[1]", "value": "Calpain activation"}, {"measurement": "cytosolic calcium concentration in Trap1−/− cells", "setting": "[2]; 3 μM gamitrinib or 1 μM MitoQ, 6 hr under hypoxia, Fluo-4 AM flow cytometry", "value": "did not affect"}, {"measurement": "HIF1α expression in Trap1−/− cells", "setting": "[2]; 6 hr under hypoxia, western blotting", "value": "not further affected; also recorded: did not affect"}, {"measurement": "calpain‐1 activation in Trap1−/− cells", "setting": "[2]; hypoxia", "value": "did not affect"}, {"measurement": "cytoplasmic calcium", "setting": "[3]", "value": "Modestly elevated"}, {"measurement": "Thickness (μm)", "setting": "[4]", "value": "53.43 ± 2.79", "unit": "μm"}, {"measurement": "viability at 10 min, 2 mM", "setting": "[5]", "value": "63.47 ± 0.23", "unit": "%"}]}]}
